Laboratory results: US20240239784A1, “INDOLE COMPOUNDS AND METHODS OF USE” (GENZYME CORPORATION, priority 2021, published 2024)

The compounds below were run on NBD1 (assay: Aggregation analysis of NBD1 thermal stability by differential static light scattering (DSLS)). Conditions: compound at 100 μM; ΔTagg versus DMSO control.
Format: binding, Human

| SMILES | DSLS NBD1/3D Human Stability delta-T (° C.) @ 100 (μM) |
| --- | --- |
| NCc1nc(-c2cc(Oc3c(F)cc4[nH]ccc4c3F)ccc2F)[nH]c1Cc1ccccc1 [Example 80, (5-Benzyl-2-(5-((4,6-difluoro-1H-indol-5-yl)oxy)-2-fluorophenyl)-1H-imidazol-4-yl)methanamine] | B (4-8° C.) |
| O=C(O)c1c(Oc2cccc(-c3nc(C(O)c4ccccc4)c[nH]3)c2)ccc2[nH]ccc12 (stereo not shown) [Example 81, 5-(3-(4-(Hydroxy(phenyl)methyl)-1H-imidazol-2-yl)phenoxy)-1H-indole-4-carboxylic acid] | B (4-8° C.) |
| COCCNC(=O)c1c(Oc2cccc(-c3nc(C(O)c4ccccc4)c[nH]3)c2)ccc2[nH]ccc12 (stereo not shown) [Example 82, 5-(3-(4-(Hydroxy(phenyl)methyl)-1H-imidazol-2-yl)phenoxy)-N-(2-methoxyethyl)-1H-indole-4-carboxamide] | B (4-8° C.) |
| O=C(NCC(O)C(F)(F)F)c1c(Oc2cccc(-c3nc(C(O)c4ccccc4)c[nH]3)c2)ccc2[nH]ccc12 (stereo not shown) [Example 83, 5-(3-(4-(Hydroxy(phenyl)methyl)-1H-imidazol-2-yl)phenoxy)-N-(3,3,3-trifluoro-2 hydroxypropyl)-1H-indole-4-carboxamide] | A (T ≥8° C.) |
